{"source": "paper PMC5218480", "about": "(PLoS ONE, 2017)", "tested_on": "MV-4-11 cells", "experiment": "Gene expression microarray analysis (Affymetrix PrimeView) and GSEA", "type": "cell-based, human", "parameters": "RFU PODN (11730768_x_at) / Fold change /veh PODN (11730768_x_at) / RFU LINC00158 (11744669_a_at) / Fold change /veh LINC00158 (11744669_a_at) / RFU DUSP10 (11751237_a_at) / Fold change /veh DUSP10 (11751237_a_at) / RFU ID3 (11757404_x_at) / Fold change /veh ID3 (11757404_x_at) / RFU PLEKHG5 (11737974_s_at) / Fold change /veh PLEKHG5 (11737974_s_at) / RFU LRRC4B (11730491_at) / Fold change /veh LRRC4B (11730491_at) / RFU GIMAP4 (11747438_a_at) / Fold change /veh GIMAP4 (11747438_a_at) / RFU KRT8 (11758183_x_at) / Fold change /veh KRT8 (11758183_x_at) / RFU CNN1 (11734310_a_at) / Fold change /veh CNN1 (11734310_a_at) / RFU VPS37D (11726825_at) / Fold change /veh VPS37D (11726825_at) / RFU C10orf10 (11716522_x_at) / Fold change /veh C10orf10 (11716522_x_at) / RFU KIR2DL2 /// KIR2DL4 /// KIR2DL5A /// KIR2DL5B /// KIR2DS1 /// KIR2DS2 /// KIR2DS3 /// KIR2DS4 /// KIR3DL3 /// KIR3DL3 /// KIR3DS1 (11738374_at) / Fold change /veh KIR2DL2 /// KIR2DL4 /// KIR2DL5A /// KIR2DL5B /// KIR2DS1 /// KIR2DS2 /// KIR2DS3 /// KIR2DS4 /// KIR3DL3 /// KIR3DL3 /// KIR3DS1 (11738374_at) / RFU C1QL1 (11718748_at) / Fold change /veh C1QL1 (11718748_at) / RFU TMPRSS4 (11747572_a_at) / Fold change /veh TMPRSS4 (11747572_a_at) / RFU HAMP (11756126_x_at) / Fold change /veh HAMP (11756126_x_at) / RFU RNFT2 (11725882_a_at) / Fold change /veh RNFT2 (11725882_a_at) / RFU NR4A2 (11747474_a_at) / Fold change /veh NR4A2 (11747474_a_at) / RFU ABCC12 (11746883_a_at) / Fold change /veh ABCC12 (11746883_a_at) / RFU TMEM136 (11760407_x_at) / Fold change /veh TMEM136 (11760407_x_at) / RFU CLDN22 /// WWC2 (11732394_at) / Fold change /veh CLDN22 /// WWC2 (11732394_at) / RFU HLA-DPB1 (11760878_x_at) / Fold change /veh HLA-DPB1 (11760878_x_at) / RFU SPINT1 (11716480_a_at) / Fold change /veh SPINT1 (11716480_a_at) / RFU GAP43 (11754022_s_at) / Fold change /veh GAP43 (11754022_s_at) / RFU A4GNT (11735810_at) / Fold change /veh A4GNT (11735810_at) / RFU PRB3 (11715151_x_at) / Fold change /veh PRB3 (11715151_x_at) / RFU TUBB4B (11761932_at) / Fold change /veh TUBB4B (11761932_at) / RFU CAPN14 (11732068_a_at) / Fold change /veh CAPN14 (11732068_a_at) / RFU TMCC2 (11721928_a_at) / Fold change /veh TMCC2 (11721928_a_at) / RFU IRGQ (11745062_a_at) / Fold change /veh IRGQ (11745062_a_at) / RFU FAM174B (11720279_a_at) / Fold change /veh FAM174B (11720279_a_at) / RFU TMPRSS4 (11748680_a_at) / Fold change /veh TMPRSS4 (11748680_a_at) / RFU FAM212B (11763350_a_at) / Fold change /veh FAM212B (11763350_a_at) / RFU PLEKHG5 (11743358_a_at) / Fold change /veh PLEKHG5 (11743358_a_at) / RFU ZSCAN30 (11745921_a_at) / Fold change /veh ZSCAN30 (11745921_a_at) / RFU CMKLR1 (11741424_a_at) / Fold change /veh CMKLR1 (11741424_a_at) / RFU LOC101060620 /// MAPK8IP1 (11723275_at) / Fold change /veh LOC101060620 /// MAPK8IP1 (11723275_at) / RFU SPTSSB (11747773_x_at) / Fold change /veh SPTSSB (11747773_x_at) / RFU PRSS12 (11739890_at) / Fold change /veh PRSS12 (11739890_at) / RFU BIN1 (11741810_x_at) / Fold change /veh BIN1 (11741810_x_at) / RFU WNT11 (11732464_a_at) / Fold change /veh WNT11 (11732464_a_at) / RFU C10orf10 (11716521_a_at) / Fold change /veh C10orf10 (11716521_a_at) / RFU C5orf56 (11738089_at) / Fold change /veh C5orf56 (11738089_at) / RFU CYB561 (11721691_x_at) / Fold change /veh CYB561 (11721691_x_at) / RFU ANKRD19P (11752326_a_at) / Fold change /veh ANKRD19P (11752326_a_at) / RFU OR2T12 /// OR2T33 /// OR2T8 (11738714_s_at) / Fold change /veh OR2T12 /// OR2T33 /// OR2T8 (11738714_s_at) / RFU VCAN (11748164_a_at) / Fold change /veh VCAN (11748164_a_at) / RFU JSRP1 (11732532_at) / Fold change /veh JSRP1 (11732532_at) / RFU KRTAP10-11 (11738290_x_at) / Fold change /veh KRTAP10-11 (11738290_x_at) / RFU MYO3A (11730013_a_at) / Fold change /veh MYO3A (11730013_a_at) / RFU EBF3 (11725865_a_at) / Fold change /veh EBF3 (11725865_a_at) / RFU CAMK2N1 (11719241_x_at) / Fold change /veh CAMK2N1 (11719241_x_at) / RFU C5orf56 (11738088_a_at) / Fold change /veh C5orf56 (11738088_a_at) / RFU OLFML3 (11715873_a_at) / Fold change /veh OLFML3 (11715873_a_at) / RFU LOC100653217 /// NTM (11731650_a_at) / Fold change /veh LOC100653217 /// NTM (11731650_a_at) / RFU MAPK11 (11762145_a_at) / Fold change /veh MAPK11 (11762145_a_at) / RFU FIZ1 (11724087_x_at) / Fold change /veh FIZ1 (11724087_x_at) / RFU OASL (11726364_x_at) / Fold change /veh OASL (11726364_x_at) / RFU SOX15 (11748057_x_at) / Fold change /veh SOX15 (11748057_x_at) / RFU CD79A (11719716_a_at) / Fold change /veh CD79A (11719716_a_at) / RFU HIST1H1D (11736915_at) / Fold change /veh HIST1H1D (11736915_at) / RFU CASKIN2 (11723855_a_at) / Fold change /veh CASKIN2 (11723855_a_at) / RFU LOC730098 (11760151_x_at) / Fold change /veh LOC730098 (11760151_x_at) / RFU OR4N2 (11742367_at) / Fold change /veh OR4N2 (11742367_at) / RFU PRRT2 (11749266_a_at) / Fold change /veh PRRT2 (11749266_a_at) / RFU SNX32 (11753110_a_at) / Fold change /veh SNX32 (11753110_a_at) / RFU CDHR5 (11726645_a_at) / Fold change /veh CDHR5 (11726645_a_at) / RFU RCAN1 (11760418_a_at) / Fold change /veh RCAN1 (11760418_a_at) / RFU FAM167A (11723789_a_at) / Fold change /veh FAM167A (11723789_a_at) / RFU FAM26E (11764081_at) / Fold change /veh FAM26E (11764081_at) / RFU ISYNA1 (11749810_s_at) / Fold change /veh ISYNA1 (11749810_s_at) / RFU ACY1 (11761880_at) / Fold change /veh ACY1 (11761880_at) / RFU 11764098_at / Fold change /veh 11764098_at / RFU SAMD14 (11745864_x_at) / Fold change /veh SAMD14 (11745864_x_at) / RFU NPB (11741838_a_at) / Fold change /veh NPB (11741838_a_at) / RFU TMPRSS6 (11731388_a_at) / Fold change /veh TMPRSS6 (11731388_a_at) / RFU KRTAP10-2 (11738614_at) / Fold change /veh KRTAP10-2 (11738614_at) / RFU ARHGAP8 /// PRR5-ARHGAP8 (11727945_x_at) / Fold change /veh ARHGAP8 /// PRR5-ARHGAP8 (11727945_x_at) / RFU KRTAP5-7 /// NADSYN1 (11734609_at) / Fold change /veh KRTAP5-7 /// NADSYN1 (11734609_at) / RFU RASL12 (11751679_a_at) / Fold change /veh RASL12 (11751679_a_at) / RFU CDKN2B (11736163_a_at) / Fold change /veh CDKN2B (11736163_a_at) / RFU PRF1 (11729649_at) / Fold change /veh PRF1 (11729649_at) / RFU, ZNF638 /// ZNF638-IT1 / Fold change vs veh, ZNF638 /// ZNF638-IT1 / RFU, PANK3 / Fold change vs veh, PANK3 / RFU, SH3YL1 / Fold change vs veh, SH3YL1 / RFU, ZEB2 / Fold change vs veh, ZEB2 / RFU, NRIP1 / Fold change vs veh, NRIP1 / RFU, PTTG1IP / Fold change vs veh, PTTG1IP / RFU, CAPN2 / Fold change vs veh, CAPN2 / RFU, MED14 / Fold change vs veh, MED14 / RFU, SNORA58 / Fold change vs veh, SNORA58 / RFU, C1orf63 / Fold change vs veh, C1orf63 / RFU, LRRFIP1 / Fold change vs veh, LRRFIP1 / RFU, NDUFAF7 / Fold change vs veh, NDUFAF7 / RFU, SLC12A2 / Fold change vs veh, SLC12A2 / RFU, IBTK / Fold change vs veh, IBTK / RFU, ESF1 / Fold change vs veh, ESF1 / Fold change vs veh, TMEM50B / RFU, TAOK1 / Fold change vs veh, TAOK1 / RFU, ACBD3 / Fold change vs veh, ACBD3 / RFU, TMA16 / Fold change vs veh, TMA16 / RFU, RWDD3 / Fold change vs veh, RWDD3 / RFU, BCAT1 / Fold change vs veh, BCAT1 / RFU, EDEM3 / Fold change vs veh, EDEM3 / RFU, TMEM33 / Fold change vs veh, TMEM33 / RFU, WDR75 / Fold change vs veh, WDR75 / RFU, AHCTF1 / Fold change vs veh, AHCTF1 / RFU, TFRC / Fold change vs veh, TFRC / RFU, ZDHHC17 / Fold change vs veh, ZDHHC17 / RFU, NOM1 / Fold change vs veh, NOM1 / RFU, ARL8B / Fold change vs veh, ARL8B / RFU, ZBTB11 / Fold change vs veh, ZBTB11 / RFU, TAMM41 / Fold change vs veh, TAMM41 / RFU, KIAA1704 /// LOC100996395 / Fold change vs veh, KIAA1704 /// LOC100996395 / RFU, ING1 / Fold change vs veh, ING1 / RFU, TRMT61B / Fold change vs veh, TRMT61B / RFU, FUBP3 / Fold change vs veh, FUBP3 / RFU, TP53 / Fold change vs veh, TP53 / RFU, TNKS2 / Fold change vs veh, TNKS2 / RFU, ZFP14 / Fold change vs veh, ZFP14 / RFU, ACTR2 / Fold change vs veh, ACTR2 / RFU, PPP3R1 / Fold change vs veh, PPP3R1 / RFU, PIK3R1 / Fold change vs veh, PIK3R1 / RFU, HNRNPA1 / Fold change vs veh, HNRNPA1 / RFU, RNF170 / Fold change vs veh, RNF170 / RFU, ZNF28 / Fold change vs veh, ZNF28 / RFU, RNGTT / Fold change vs veh, RNGTT / RFU, OGT / Fold change vs veh, OGT / RFU, BRD1 / Fold change vs veh, BRD1 / RFU, MARS / Fold change vs veh, MARS / RFU, ZNF655 / Fold change vs veh, ZNF655 / RFU, FAHD1 / Fold change vs veh, FAHD1 / RFU, BDP1 / Fold change vs veh, BDP1 / RFU, LRRCC1 / Fold change vs veh, LRRCC1 / RFU, ARID1A / Fold change vs veh, ARID1A / RFU, ZNF146 / Fold change vs veh, ZNF146 / RFU, ZNF330 / Fold change vs veh, ZNF330 / RFU, GPN3 / Fold change vs veh, GPN3 / RFU, C9orf123 / Fold change vs veh, C9orf123 / RFU, N4BP2L2 / Fold change vs veh, N4BP2L2 / RFU, ARFIP1 / Fold change vs veh, ARFIP1 / RFU, FAM179B / Fold change vs veh, FAM179B / RFU, BCL10 / Fold change vs veh, BCL10 / RFU, UHRF1BP1L / Fold change vs veh, UHRF1BP1L / RFU, BET1 / Fold change vs veh, BET1 / RFU, CNOT2 / Fold change vs veh, CNOT2 / RFU, ZNF268 / Fold change vs veh, ZNF268 / Fold change vs veh, ZNF507 / RFU, DGCR2 / Fold change vs veh, DGCR2 / RFU, WDSUB1 / Fold change vs veh, WDSUB1 / Fold change vs veh, HSP90B1 /// MIR3652 / RFU, ADSS / Fold change vs veh, ADSS / RFU, GK / Fold change vs veh, GK / RFU, ZNF148 / Fold change vs veh, ZNF148 / RFU, TAF9 / Fold change vs veh, TAF9 / RFU, SLC1A5 / Fold change vs veh, SLC1A5 / RFU, SLMO2 / Fold change vs veh, SLMO2 / RFU, ABCC4 / Fold change vs veh, ABCC4 / RFU, LOC101060439 /// RAP1B / Fold change vs veh, LOC101060439 /// RAP1B / RFU, RFX7 / Fold change vs veh, RFX7 / RFU, GTPBP10 / Fold change vs veh, GTPBP10 / RFU, CNEP1R1 / Fold change vs veh, CNEP1R1 / RFU, BIVM-ERCC5 /// ERCC5 / Fold change vs veh, BIVM-ERCC5 /// ERCC5 / RFU, ILF3 / Fold change vs veh, ILF3 / RFU 11762660_at / Fold change /veh 11762660_at / RFU VCAN (11757783_s_at) / Fold change /veh VCAN (11757783_s_at) / RFU DDX43 (11728927_at) / Fold change /veh DDX43 (11728927_at) / RFU KRT8 (11758188_x_at) / Fold change /veh KRT8 (11758188_x_at) / RFU NKD1 (11759106_at) / Fold change /veh NKD1 (11759106_at) / RFU SRD5A1 (11742802_a_at) / Fold change /veh SRD5A1 (11742802_a_at) / RFU TPSAB1 /// TPSB2 (11721975_s_at) / Fold change /veh TPSAB1 /// TPSB2 (11721975_s_at) / RFU GSTM3 (11746129_a_at) / Fold change /veh GSTM3 (11746129_a_at) / RFU IL23R (11737362_x_at) / Fold change /veh IL23R (11737362_x_at) / RFU TMEM51 (11727254_a_at) / Fold change /veh TMEM51 (11727254_a_at) / RFU PIWIL2 (11732686_x_at) / Fold change /veh PIWIL2 (11732686_x_at) / RFU ORM1 (11744905_x_at) / Fold change /veh ORM1 (11744905_x_at) / RFU CCDC152 (11743942_at) / Fold change /veh CCDC152 (11743942_at) / RFU ECM1 (11717891_a_at) / Fold change /veh ECM1 (11717891_a_at) / RFU IL23R (11748794_a_at) / Fold change /veh IL23R (11748794_a_at) / RFU TNFAIP8L3 (11732012_x_at) / Fold change /veh TNFAIP8L3 (11732012_x_at) / RFU MBOAT4 (11741988_at) / Fold change /veh MBOAT4 (11741988_at) / RFU 11764193_at / Fold change /veh 11764193_at / RFU TMEM53 (11763286_at) / Fold change /veh TMEM53 (11763286_at) / RFU MAGEB2 (11727129_at) / Fold change /veh MAGEB2 (11727129_at) / RFU TMEM200A (11744735_a_at) / Fold change /veh TMEM200A (11744735_a_at) / RFU CCDC152 (11751479_a_at) / Fold change /veh CCDC152 (11751479_a_at) / RFU FAM211A (11726209_a_at) / Fold change /veh FAM211A (11726209_a_at) / RFU RGS16 (11746705_a_at) / Fold change /veh RGS16 (11746705_a_at) / RFU VCAN (11755009_s_at) / Fold change /veh VCAN (11755009_s_at) / RFU RHOB (11743442_s_at) / Fold change /veh RHOB (11743442_s_at) / RFU RGS16 (11720943_a_at) / Fold change /veh RGS16 (11720943_a_at) / RFU RGS16 (11720944_at) / Fold change /veh RGS16 (11720944_at) / RFU, VPS4B / Fold change vs veh, VPS4B / RFU, CREB1 / Fold change vs veh, CREB1 / RFU, DNAJC13 / Fold change vs veh, DNAJC13 / RFU, GNAQ / Fold change vs veh, GNAQ / RFU, CDK5R1 / Fold change vs veh, CDK5R1 / RFU, ZRANB3 / Fold change vs veh, ZRANB3 / RFU, CUL4A / Fold change vs veh, CUL4A / RFU, CCNY / Fold change vs veh, CCNY / RFU, UFL1 / Fold change vs veh, UFL1 / RFU, COG3 / Fold change vs veh, COG3 / RFU, DIAPH2 / Fold change vs veh, DIAPH2 / RFU, SKA2 / Fold change vs veh, SKA2 / RFU, AFF3 / Fold change vs veh, AFF3 / RFU, LMF1 / Fold change vs veh, LMF1 / RFU, IPO11 / Fold change vs veh, IPO11 / RFU, DFFB / Fold change vs veh, DFFB / RFU, FOXP1 / Fold change vs veh, FOXP1 / RFU, CARD8 / Fold change vs veh, CARD8 / RFU, STRN3 / Fold change vs veh, STRN3 / RFU, ADK / Fold change vs veh, ADK / RFU, RASSF2 / Fold change vs veh, RASSF2 / RFU, WIPF1 / Fold change vs veh, WIPF1 / RFU, LARP1B / Fold change vs veh, LARP1B / RFU, RASA1 / Fold change vs veh, RASA1 / RFU, RB1 / Fold change vs veh, RB1 / RFU, PPFIA1 / Fold change vs veh, PPFIA1 / RFU, MAT2A / Fold change vs veh, MAT2A / RFU, CCT5 / Fold change vs veh, CCT5 / RFU, WDR92 / Fold change vs veh, WDR92 / RFU, CUX1 / Fold change vs veh, CUX1 / RFU, TTC7A / Fold change vs veh, TTC7A / RFU, TMEM135 / Fold change vs veh, TMEM135 / RFU, DEPTOR / Fold change vs veh, DEPTOR / RFU, CPM / Fold change vs veh, CPM / RFU, DNAJB6 / Fold change vs veh, DNAJB6 / RFU, CACNA2D3 / Fold change vs veh, CACNA2D3 / RFU, DTX4 / Fold change vs veh, DTX4 / RFU, TFCP2 / Fold change vs veh, TFCP2 / RFU, GMCL1 /// GMCL1P1 / Fold change vs veh, GMCL1 /// GMCL1P1 / RFU, AEBP2 / Fold change vs veh, AEBP2 / RFU, SNHG1 /// SNORD22 /// SNORD25 /// SNORD26 /// SNORD27 /// SNORD28 /// SNORD29 /// SNORD31 / Fold change vs veh, SNHG1 /// SNORD22 /// SNORD25 /// SNORD26 /// SNORD27 /// SNORD28 /// SNORD29 /// SNORD31 / Fold change (Aza/veh), C12orf56 (ProbeSet 11735607_a_at) / Fold change (ACY-1035/veh), C12orf56 (ProbeSet 11735607_a_at) / Fold change (Aza/veh), FGFR1OP (ProbeSet 11751329_s_at) / Fold change (ACY-1035/veh), FGFR1OP (ProbeSet 11751329_s_at) / Fold change (Aza/veh), VPS36 (ProbeSet 11739960_a_at) / Fold change (ACY-1035/veh), VPS36 (ProbeSet 11739960_a_at) / RFU SYPL1 (11715823_x_at) / Fold change /veh SYPL1 (11715823_x_at) / RFU IGFBP7 (11715501_s_at) / Fold change /veh IGFBP7 (11715501_s_at) / RFU REEP3 (11722064_at) / Fold change /veh REEP3 (11722064_at) / RFU IGLL1 (11728026_x_at) / Fold change /veh IGLL1 (11728026_x_at): dose or concentration left out as unconfirmed", "conditions": "MV-4-11 cells, 48 hours"}
{"smiles": "Nc1ccc(-c2cccs2)cc1NC(=O)c1ccc2c(c1)cc(C1CC1)n2CCN1CCOCC1", "note": "[ACY-1035]", "values": [{"measurement": "Fold change /veh CLDN22 /// WWC2 (11732394_at)", "result": 1.04}]}
